Data from patent US7592188B2, “Live cell biosensors” (The Scripps Research Institute, priority 2004, dated 2009).

Experiment: Photophysical properties of dyes in various solvents (absorbance, emission, quantum yield)
Assay type: physicochemical
Design: ε × F / ε × Φ: unit not given here
Conditions: for Emission λmax / absorption λmax / Φ (quantum yield of fluorescence) / ε (molar extinction coefficient) / ε × Φ: reactive forms
Method: Analytical grade reagents were purchased from major suppliers. […] Emission and excitation spectra were obtained using a Spex Fluorolog 2 spectrofluorometer at 23° C. […] Demas et al., J. Phys. […] All operations with dyes were performed under dim light. Flasks containing dyes were wrapped with aluminum foil.

Structure (SMILES)	Emission λmax (solvent BuOH) [nm]	absorption λmax (solvent BuOH) [nm]	Φ (quantum yield of fluorescence) (solvent BuOH)	ε (molar extinction coefficient) (solvent BuOH)	ε × Φ (solvent BuOH)	Emission λmax (solvent H2O) [nm]	Emission λmax (solvent MeOH) [nm]	absorption λmax (solvent MeOH) [nm]	Φ (quantum yield of fluorescence) (solvent MeOH)	ε (molar extinction coefficient) (solvent MeOH)	ε × Φ (solvent MeOH)	quantum yield after reaction with β-mercaptoethanol relative to underivatized fluorophore	absorption λmax (solvent H2O) [nm]	Φ (quantum yield of fluorescence) (solvent H2O)	ε (molar extinction coefficient) (solvent H2O)	ε × Φ (solvent H2O)
O=C(CI)Nc1ccc2c(c1)S/C(=C/C=C/C=C1/C(=O)c3ccccc3S1(=O)=O)N2CCCS(=O)(=O)[O-].[Na+] [dye 2e, Sodium 3-[(2E)-6-[(Iodoacetyl)amino]-2-[(2E,4Z)-4-(1,1-dioxido-3-oxo-1-benzothien-2(3H)-ylidene)but-2-enylidene]-1,3-benzothiazol-3(2H)-yl]propane-1-sulfonate]	636	618	0.06	(160000)	9600	618	628	610	0.034	(140000)	3000	–	–	–	–	–
O=C(CSCCO)Nc1ccc2c(c1)S\C(=C/C=C/C=C1/C(=O)c3ccccc3S1(=O)=O)N2CCCS(=O)(=O)[O-].[Na+] [dye 2g, Sodium 3-[(2Z)-6-({[(2-Hydroxyethyl)thio]acetyl}amino)-2-[(2E,4Z)-4-(1,1-dioxido-3-oxo-1-benzothien-2(3H)-ylidene)but-2-enylidene]-1,3-benzothiazol-3(2H)-yl]propane-1-sulfonate]	–	–	–	–	–	–	629	610	0.054	(138000)	8000	returned the quantum yield of S—SO to that of the underivatized fluorophore	–	–	–	–
CC1(C)/C(=C/C=C/C=C2/C(=O)c3ccccc3S2(=O)=O)N(CCCS(=O)(=O)[O-])c2ccc(NC(=O)CI)cc21.[Na+] [dye 4e, Sodium 3-{(2Z)-5-[(Iodoacetyl)amino]-2-[(2E,4Z)-4-(1,1-dioxido-3-oxo-1-benzothien-2(3H)-ylidene)but-2-enylidene]-3,3-dimethyl-2,3-dihydro-1H-indol-1-yl}propane-1-sulfonate]	639	607	0.06	(150000)	9000	630	634	601	0.01	(138000)	1400	–	599	0.004	(143000)	600
CN(C(=O)COCC(=O)ON1C(=O)CCC1=O)c1ccc2c(c1)C(C)(C)/C(=C/C=C/C=C1/C(=O)c3ccccc3S1(=O)=O)N2CCCS(=O)(=O)[O-].[Na+] [dye 4f, Sodium 3-{(2Z)-5-[({2-[(2,5-Dioxopyrrolidin-1-yl)oxy]-2-oxoethoxy}acetyl)methylamino]-2-[(2E,4Z)-4-(1,1-dioxido-3-oxo-1-benzothien-2(3H)-ylidene)but-2-enylidene]-3,3-dimethyl-2,3-dihydro-1H-indol-1-yl}propane-1-sulfonate]	623	590	0.19	(134000)	26000	616	620	586	0.05	(140000)	7000	–	594	0.01	(150000)	1500
